The text below walks through data of publication PMC10903759 (Journal of Genetic Engineering & Biotechnology, 2024).

This test concerns leaf rust (Puccinia triticina, CCDS-96-14-1 isolate) urediniospores. The test is classed as cell-based.

Where no end group is shown, it is not given here.

As to “KEICCKELTKPVKCSSDPLCQKLCMEKEKYEDGHCFTILSKCLCMKRCNAKTLATELLA (disulfide (positions not given here)) [CaThi]”, the “germination rate of urediniospores” value is reported as 22.73 % ± 7.39.
